Data from US20190336496A1, “SELECTIVE BCL-2 INHIBITORS IN COMBINATION WITH AN ANTI-PD-1 OR AN ANTI-PD-L1 ANTIBODY FOR THE TREATMENT OF CANCERS” (AbbVie Inc., priority 2018, published 2019).

What was measured:
[1] = test system: CMV-positive CD8 T cells; test: CMV specific CD8 T cell response; format: cell-based, human; conditions: overnight (12-14 hours) incubation
Text: The cytomegalovirus (CMV) specific assay was used to evaluate the effects of venetoclax on antigen-experienced CD8 T cells. This assay used CMV) peptide pp65 ([…], SEQ ID NO: 53) to stimulate CMV-positive CD8 T cells, and MART ([…]) peptide as a negative control. Human CMV-positive CD8 T cells and CMV peptide pp65 were purchased from Astarte Biologics and MART peptide as purchased from Genscript. 2×10^5 CMV-positive CD8 T cells were stimulated with 2×10^5 CMV pp65 peptide or MART peptide loaded T2 cells (2.5 μg/ml of peptide) with brefeldin-A in RPMI media supplemented with 10% fetal bovine serum (FBS). For measuring the IFNγ secretion in the supernatant, CMV+ CD8 T cells were activated with CMV pp65 peptide or MART peptide loaded T2 cells and incubated with venetoclax without brefeldin-A in RPMI media supplemented with 10% fetal bovine serum (FBS). […] Cells were analyzed using an LSRFortessa™ X-20 instrument (BD Biosciences). The secreted IFNγ in supernatant was measured by ELISA.
CMV+ CD8 T cells were activated by CMV pp65 peptide ([…]) loaded on T2 cells and the effect of venetoclax on the function of these cells was assessed by measuring intra-cellular and secreted IFNγ (flow cytometry and ELISA as described above). […]

[2] = test system: CD4 T-cells co-cultured with MoDCs; test: Mixed lymphocyte reaction (MLR) assay; format: cell-based, human
Procedure: Mixed Lymphocyte Reaction (MLR) assay was used to examine venetoclax effect on T-cell function in response to immune stimulation. Monocytic-derived dendritic cells (MoDCs) were generated from fresh human blood. PBMCs were isolated using a Ficoll gradient. The PBMCs were allowed to adhere for 2 hours. After 2 hours, cells in suspension were removed. Fresh AIM V™ medium (ThermoFisher cat. #12055091) supplemented with granulocyte-macrophage colony-stimulating factor (GM-CSF, 80 ng/mL) and IL-4 (50 ng/mL) was added to the culture. After 5 days, the MoDCs were stimulated with IL-1α and TNF-α (0.2 ng/mL each) for 48 hours to increase major histocompatibility complex class II molecules (MHCII) expression. These activated MoDCs were then co-cultured with CD4 T-cells (Biospecialty Corp.) at a ratio of 10:1 (T-cells:MoDCs) in a mixed lymphocyte reaction (MLR). The cells were treated with control IgG (Isotype) or anti-PD-1 antibody (nivolumab or ABBV-181 along with either dimethyl sulfoxide (DMSO) or BCL-2 inhibitors venetoclax (Compound (I)) or Compounds (II) or (III). Antibodies were added at 10 μg/mL and the compound concentrations of venetoclax were as indicated in FIG. 11. The MLR was cultured for 5 days, after which the cells were analyzed by flow cytometry using an LSRFortessa™ X-20 instrument (BD Biosciences) to determine cell number and functional cytokine (IFNγ) responses.

[3] = test system: DU4475; test: Venetoclax cell killing (CellTiter-Glo); format: cell-based; conditions: Homo sapiens, DU-4475, 120 h; Breast Cancer; 10% FBS; 5 days
Procedure: (§1) Solid tumor cell lines were obtained from American Type Culture Collection (ATCC, Manassas, Va.) or the National Cancer Institute (NCI) and cultured in humidified incubators at 37° C. (5% CO2) in appropriate media (specified by supplier) supplemented with 10% fetal bovine serum (FBS) or 10% human serum (HS). 24 hours after plating into 96-well or 384-well tissue culture plates, venetoclax was added to cells at various concentrations (typically 0.010 to 10 μM in half-log increments) to perform concentration-response assessments of cell killing. After 1 to 5 days of culture in the presence of venetoclax, cell viability was assessed using CellTiter-Glo® reagent (Promega). IC50 values were determined by non-linear regression analysis of the concentration response data (Table 5 and Table 6).

[4] = test system: NCI-H508; test: Venetoclax cell killing (CellTiter-Glo); format: cell-based; conditions: Homo sapiens, NCI-H508, 72 h; Colorectal; 10% FBS; 3 days
Procedure: as §1

[5] = test system: C32; test: Venetoclax cell killing (CellTiter-Glo); format: cell-based; conditions: Homo sapiens, C32, 120 h; Melanoma; 10% FBS; 5 days
Procedure: as §1

[6] = test system: SW48; test: Venetoclax cell killing (CellTiter-Glo); format: cell-based; conditions: Homo sapiens, SW48, 120 h; Colorectal; 10% FBS; 5 days
Procedure: as §1

[7] = test system: NCI-H2009; test: Venetoclax cell killing (CellTiter-Glo); format: cell-based; conditions: Homo sapiens, NCI-H2009, 72 h; Lung; 10% FBS; 3 days
Procedure: as §1

[8] = test system: NCI-H847; test: Venetoclax cell killing (CellTiter-Glo); format: cell-based; conditions: Homo sapiens, 24 h; Lung; 10% FBS; 1 day
Procedure: as §1

[9] = test system: NCI-H522; test: Venetoclax cell killing (CellTiter-Glo); format: cell-based; conditions: Homo sapiens, NCI-H522, 72 h; Lung; 10% FBS; 3 days
Procedure: as §1

[10] = test system: SW480; test: Venetoclax cell killing (CellTiter-Glo); format: cell-based; conditions: Homo sapiens, SW480, 120 h; Colorectal; 10% FBS; 5 days
Procedure: as §1

[11] = test system: NCI-H1993; test: Venetoclax cell killing (CellTiter-Glo); format: cell-based; conditions: Homo sapiens, NCI-H1993, 72 h; Lung; 10% FBS; 3 days
Procedure: as §1

[12] = test system: COLO-201; test: Venetoclax cell killing (CellTiter-Glo); format: cell-based; conditions: Homo sapiens, COLO 201, 120 h; Colorectal; 10% FBS; 5 days
Procedure: as §1

[13] = test system: Calu-6; test: Venetoclax cell killing (CellTiter-Glo); format: cell-based; conditions: Homo sapiens, Calu-6, 72 h; Lung; 10% FBS; 3 days
Procedure: as §1

In the case of `CC1(C)CCC(CN2CCN(c3ccc(C(=O)NS(=O)(=O)c4ccc(NCC5CCOCC5)c([N+](=O)[O-])c4)c(Oc4cnc5[nH]ccc5c4)c3)CC2)=C(c2ccc(Cl)cc2)C1` [Compound (I), venetoclax], the “number of CD8 T cells” value [1] is reported as “reduced”, the “IFNγ detected in the supernatant” value ([2]; MLR 5 days) is reported as “same amount” and the “proportion of CD4+ T-cells that produce IFNγ” value ([2]; MLR 5 days, with isotype control or anti-PD-1 antibody) is reported as “increase”. The “number of CD4+ T-cells” value ([2]; MLR cultured 5 days, antibodies at 10 μg/mL) was “reduced”, the “CD3+ T cell numbers” value ([2]; MLR, BCL-2 inhibitors at 1 μM) was “declined comparably” and the “production of IFNγ (secreted)” value ([2]; MLR, BCL-2 inhibitors at 1 μM) was “not antagonized”. For the same compound, the “proportion of CD3+ T-cells that produce IFNγ” value ([2]; MLR, BCL-2 inhibitors at 1 μM) was “increase”, the IC50 [3] was greater than 10 µM and the IC50 [4] was 4.45 µM. It also gave an IC50 [5] greater than 10 µM, an IC50 [6] greater than 10 µM and an IC50 [7] of 4.11 µM. It also gave an IC50 [8] greater than 10 µM, an IC50 [9] greater than 10 µM and an IC50 [10] greater than 10 µM. The IC50 [11] was 3.83 µM, the IC50 [12] was 9.78 µM and the IC50 [13] was greater than 10 µM.
